In assay [1] the target is T1, MAT2A homodimer (Homo sapiens, UniProt P31153).
T1 construct: inferred from Ni sepharose purification with imidazole elution; made in house; host or cells: Sf9 insect cells, baculovirus (Bac to Bac, pFASTBAC1)
The experiment in a line: MAT2A inhibition (biochemical, liberated phosphate, PiColorLock Gold). The conditions noted are these: recombinant MAT2A homodimer; IC50 bin with Max Inh.; read-out: Enzyme Inhibition Bin. How it is done:
Mat2A protein was expressed by recombinant baculovirus in SF9 infected cells using the Bac to Bac system cloned into the pFASTBAC1 vector (Invitrogen, Carlsbad, Calif.). Recombinant MAT2A was isolated from the cell lysate of 150 g of infected cells using HP Ni sepharose column chromatography. Recombinant MAT2A homodimer was eluted with 250 and 500 mM imidazole, and fractions containing MAT2A were identified by sodium dodecyl sulfate polyacrylamide gel electrophoresis and pooled.
For determination of the inhibitory potency of compounds against the MAT2A homodimer, protein was diluted to 4 μg/mL in assay buffer (50 mM Tris, pH 8.0, 50 mM KCl, 15 mM MgCl2, 0.3 mM EDTA, 0.005% [w/v] bovine serum albumin [BSA]). Test compound was prepared in 100% dimethyl sulfoxide (DMSO) at 50× the desired final concentration. A 1 μL volume of compound dilution was added to 40 μL of enzyme dilution and the mixture was allowed to equilibrate for 60 minutes at 25° C. The enzymatic assay was initiated by the addition of 10 μL of substrate mix (500 μM ATP, pH 7.0, 400 μM L-methionine in 1× assay buffer), and the mixture was incubated for a further 60 minutes at 25° C. The reaction was halted and the liberated phosphate released by the enzyme in stoichiometric amounts by the production of S-adenosyl methionine (SAM) was measured using the PiColorLock Gold kit (Innova Biosciences, UK). Absolute product amounts were determined by comparison to a standard curve of potassium phosphate buffer, pH 8.0. The compounds were also tested in a secondary assay utilizing 1 μg/mL MAT2A and incubated for 5 hours at 25° C. before halting and processing as above.
Specific compounds disclosed herein were tested in the foregoing assay and they were determined to inhibit MAT2A with an IC50. See, Table 1 below.

Assay [2] has as its system SAM in HCT116 human colon carcinoma cell line with MTAP gene deleted (MTAP −/−). The experiment in a line: Cellular assay of target engagement (SAM), LC-MS/MS, 72 hrs. The format is cell-based. The settings on record: HCT-116, IC50 bin with Max Inh., read-out: Cell 72 h SAM Inhibition (MTAP −/−). How it is done: Measurement of MAT2A activity in cells was made by direct quantitation of the abundance of the product of its enzymatic activity, SAM. Cancer cells were treated with candidate MAT2A inhibitors for a suitable incubation period, and the cells were then lysed using a reagent which quenched any further enzyme activity. Soluble metabolites including SAM were collected and SAM itself was directly measured from the lysate using quantitative LC-MS/MS.
A typical assay was performed using an HCT116 human colon carcinoma cell line which was genetically engineered to delete the MTAP gene (commercially available from Horizon Discovery). This cell line was utilized because it was determined that loss of the MTAP gene predicts sensitivity to MAT2A inhibitors. Cells were plated in 96-well dishes at appropriate cell density. Following 24 hours, cells were then treated with the candidate MAT2A inhibitor. Prior to addition to cells, the compound was first serially diluted in 100% DMSO, typically as a 3-fold serial dilution starting at 500× top dose with 10 dose points including DMSO only control. Compound was then transferred to a working stock plate in cell culture media by adding 5 μL of compound in DMSO to 495 μL of cell culture media. This working stock was then added to cells via a further 5-fold dilution, by adding 25 μL of working stock to 100 μL of cells in culture media. Following compound addition, cells were incubated at 37° C./5% CO2 for 72 hrs.
To quantitate SAM levels following compound treatment, cells were gently washed once in ammonium carbonate buffer (75 mM at pH 7.4), placed on dry ice, and lysed with metabolite extraction buffer (80% cold methanol and 20% water (v/v) with acetic acid at 1M final concentration with 200 ng/mL deuterated d3-SAM as internal control). Following centrifugation at 4° C. at 3,200 rpm for 30 minutes, the supernatant was collected and stored at −80° C. until analysis by Liquid Chromatography with tandem Mass Spectrometry (LC-MS/MS). LC-MS/MS analysis was performed using an API6500 Mass Spectrometer (Sciex, Framingham, Mass., USA) operating in positive ion spray mode and equipped with a Waters UPLC Acquity (Waters, Milford, Mass., USA) BEH Amide column. Multiple Reaction Monitoring data was acquired for SAM and the d3-SAM standard, using a mass transition pair at m/z 399.2→250.1 and 402.2→250.1, respectively. In a typical LC-MS/MS analysis, the initial flow rate was 0.5 ml/min of 25% mobile phase A (acetonitrile and water at 5:95 (v/v) with 1% formic acid and 10 mM ammonium acetate) and 75% mobile phase B (acetonitrile and water at 95:5 (v/v) with 1% formic acid and 10 mM ammonium acetate), 0.2-0.5 minutes with 75%-35% mobile phase B, 25%-65% mobile phase A, at 0.5 min 65% mobile phase A and 35% mobile phase B, 1.0-1.1 minutes with 35%-75% mobile phase B, 65%-25% mobile phase A, at 1.1 min 25% mobile phase A and 75% mobile phase B with a total run time of 1.5 minutes.
Specific compounds disclosed herein were tested in the foregoing assay and they were determined to inhibit SAM with an IC50. See, Table 1 below.

For assay [3], the system named is HCT116 MTAP−/−. The experiment in a line: Inhibition of cellular proliferation, 4 days, Cell Titer Glo, HCT116 MTAP−/−. The class given is cell-based. The conditions noted are these: Homo sapiens, HCT-116, 96 h, IC50 bin with Max Inh., read-out: 4 Day Relative Growth Inhibition (MTAP −/−). How it is done:
(§1) Test compound impact on cancer cell growth was assessed by treating cancer cells with compound for 4 days and then measuring proliferation using an ATP-based cell proliferation readout (Cell Titer Glo, Promega Corporation).
(§2) In a typical assay an isogenic pair of HCT116 human colon carcinoma cell lines which vary only in MTAP deletion status (HCT116 MTAP+/+ and HCT116 MTAP−/−) were plated in 96-well dishes at appropriate cell density. Following 24 hours, cells were then treated with the candidate MAT2A inhibitor. Prior to addition to cells, the compound was first serially diluted in 100% DMSO, typically as a 3-fold serial dilution starting at 500× top dose with 10 dose points including DMSO only control. Compound was then transferred to a working stock plate in cell culture media by adding 5 μL of compound in DMSO to 495 μL of cell culture media. This working stock was then added to cells via a further 5-fold dilution, by adding 25 μL of working stock to 100 μL of cells in culture media. Following compound addition, cells were incubated at 37° C./5% CO2 for 4 days.
(§3) To measure inhibition of cellular proliferation, cells were allowed to equilibrate to room temperature for 30 minutes, and were then treated with 125 μL of Cell Titer Glo reagent. The plate was then covered with aluminum foil and shaken for 15 minutes to ensure complete mixing and full cell lysis. Luminescent signal was then measured using a plate-based luminometer Veritas version 1.9.2 using ATP standard curve to confirm assay reproducibility from run to run. This luminescence measure was converted to a proliferation index by subtracting from each data point the ATP luminescence signal measured from a bank (no cells) well and dividing by the ATP luminescence signal measured in 0.2% DMSO control well adjusted for signal in blank well. Compound activity was then represented as a percentage change in proliferation relative to a within-plate DMSO control against log 10 of compound concentration in molar (M) units.
(§4) Specific compounds disclosed herein were tested in the foregoing assay and they were determined to inhibit cellular proliferation with an IC50. See, Table 1 below.
On the technique in general: ATP-based viability assays read luminescence as a measure of living cells.

Assay [4] concerns HCT116 MTAP+/+. The experiment in a line: Inhibition of cellular proliferation, 4 days, Cell Titer Glo, HCT116 MTAP+/+. The format is cell-based. The settings on record: Homo sapiens, HCT-116, 96 h, IC50 bin with Max Inh., read-out: 4 Day Relative Growth Inhibition (MTAP +/+). How it is done: as §1, §2, §3, §4

This note sets out measurements from patent US20220169654A1, “New Organic Compounds” (Servier Pharmaceuticals LLC, priority 2020, published 2022).

Where only a bound is given, the exact number is not on record here.

T1 sequence (P31153 whole entry): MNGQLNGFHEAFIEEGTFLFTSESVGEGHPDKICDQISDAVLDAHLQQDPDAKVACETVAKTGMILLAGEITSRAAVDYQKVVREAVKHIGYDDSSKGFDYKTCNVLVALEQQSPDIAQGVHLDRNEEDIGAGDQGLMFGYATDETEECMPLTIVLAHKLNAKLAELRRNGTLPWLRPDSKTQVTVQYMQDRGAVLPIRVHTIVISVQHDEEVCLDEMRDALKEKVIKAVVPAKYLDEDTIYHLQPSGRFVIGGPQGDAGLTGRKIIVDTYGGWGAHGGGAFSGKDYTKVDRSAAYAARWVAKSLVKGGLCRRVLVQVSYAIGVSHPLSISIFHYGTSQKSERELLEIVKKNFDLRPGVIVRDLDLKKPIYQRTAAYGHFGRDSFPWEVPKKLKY

For `CC(C)Cn1cc(C#N)c2nn(-c3ccc4nn(C)cc4c3)c(=O)c(-c3ccc(OC(F)F)cc3)c21` [Example 116, 4-(4-(difluoromethoxy)phenyl)-5-isobutyl-2-(2-methyl-2H-indazol-5-yl)-3-oxo-3,5-dihydro-2H-pyrrolo[3,2-c]pyridazine-7-carbonitrile], the IC50 in assay [1] is under 0.1 µM; in assay [2] it was under 0.1 µM; in assay [3] it was 0.1 to 1 µM; in assay [4] it was over 1 µM.
`[2H]C([2H])([2H])n1cc2cc(-n3nc4c(C#N)cn(CC5CC5)c4c(-c4ccc(C5CC5)nc4)c3=O)ccc2n1` [Example 270, 5-(cyclopropylmethyl)-4-(6-cyclopropylpyridin-3-yl)-2-(2-(methyl-d3)-2H-indazol-5-yl)-3-oxo-3,5-dihydro-2H-pyrrolo[3,2-c]pyridazine-7-carbonitrile]: the IC50 in assay [1] was under 0.1 µM; in assay [2], under 0.1 µM; in assay [3], under 0.1 µM; in assay [4], 0.1 to 1 µM.
Take `Cn1cc2cc(-n3nc4cnn(CC5CC5)c4c(-c4ccc(Cl)cc4)c3=O)ccc2n1` [Example 221, 7-(4-chlorophenyl)-1-(cyclopropylmethyl)-5-(2-methyl-2H-indazol-5-yl)-1,5-dihydro-6H-pyrazolo[4,3-c]pyridazin-6-one]: the IC50 was under 0.1 µM in assay [1], under 0.1 µM in assay [2], under 0.1 µM in assay [3] and 0.1 to 1 µM in assay [4].
As to `Cc1ccc(-c2c(=O)n(-c3ccc4nn(C)cc4c3)nc3c(C(F)(F)F)cn(CC4CC4)c23)cn1` [Example 258, 5-(cyclopropylmethyl)-2-(2-methyl-2H-indazol-5-yl)-4-(6-methylpyridin-3-yl)-7-(trifluoromethyl)-2,5-dihydro-3H-pyrrolo[3,2-c]pyridazin-3-one], the IC50 in assay [1] was under 0.1 µM; in assay [2] it was under 0.1 µM; in assay [3] it was under 0.1 µM; in assay [4], 0.1 to 1 µM.
Regarding `[2H]C([2H])([2H])Oc1ccc(-n2nc3ccn(CC4CC4)c3c(-c3ccc(C(F)F)nc3)c2=O)cc1` [Example 132, 5-(cyclopropylmethyl)-4-(6-(difluoromethyl)pyridin-3-yl)-2-(4-(methoxy-d3)phenyl)-2,5-dihydro-3H-pyrrolo[3,2-c]pyridazin-3-one], the IC50 is under 0.1 µM in assay [1], 0.1 to 1 µM in assay [2], 0.1 to 1 µM in assay [3] and over 1 µM in assay [4].
With `Cn1cc2cc(-n3nc4nnn(CC5CC5)c4c(-c4ccc(C5CC5)nc4)c3=O)ccc2n1` [Example 210, 1-(cyclopropylmethyl)-7-(6-cyclopropylpyridin-3-yl)-5-(2-methyl-2H-indazol-5-yl)-1,5-dihydro-6H-[1,2,3]triazolo[4,5-c]pyridazin-6-one], the IC50 in assay [1] was 0.1 to 1 µM; in assay [2], over 1 µM; in assay [3], 0.1 to 1 µM; in assay [4], over 1 µM.
With `Cc1ccc(-c2c(=O)n(-c3ccc4nn(C)cc4c3)nc3c(C)nn(CC4CC4)c23)cn1` [Example 217, 1-(cyclopropylmethyl)-3-methyl-5-(2-methyl-2H-indazol-5-yl)-7-(6-methylpyridin-3-yl)-1,5-dihydro-6H-pyrazolo[4,3-c]pyridazin-6-one], the IC50 in assay [1] was under 0.1 µM; in assay [2], under 0.1 µM; in assay [3], under 0.1 µM; in assay [4], over 1 µM.
`Cn1cc2cc(-n3nc4c(C#N)cn(CC5CC5)c4c(-c4ccc(C5(O)CC5)nc4)c3=O)ccc2n1` [Example 256, 5-(cyclopropylmethyl)-4-(6-(1-hydroxycyclopropyl)pyridin-3-yl)-2-(2-methyl-2H-indazol-5-yl)-3-oxo-3,5-dihydro-2H-pyrrolo[3,2-c]pyridazine-7-carbonitrile]: the IC50 is under 0.1 µM in assay [1], 0.1 to 1 µM in assay [2], 0.1 to 1 µM in assay [3] and over 1 µM in assay [4].
